The text below walks through data of patent publication US20080161249A1, “Use of Novel Antibacterial Compounds” (SMITHKLINE BEECHAM CORPORATION, priority 2004, published 2008).

Converted amounts (≈) assume the structure as drawn.

In assay [1] the test system is S. pneumoniae 1629. The experiment in a line: MIC against S. pneumoniae 1629, alone and with subinhibitory concentrations of a second agent. Type of assay: cell-based, Streptococcus pneumoniae. Conditions: for decrease of MIC by subinhibitory concentrations of Compound (1b): S. pneumoniae; for MIC, antibiotic with 0.06 ug/mL (¼ MIC) of Compound (1b) / fold decrease MIC, antibiotic with 0.06 ug/mL (¼ MIC) of Compound (1b) / MIC, antibiotic with […] (½ MIC) of Compound (1b) / fold decrease MIC, antibiotic with […] (½ MIC) of Compound (1b) / MIC, antibiotic alone: S. pneumoniae 1629; for MIC, antibiotic with 0.06 ug/mL (¼ MIC) of Compound (1b) / fold decrease MIC, antibiotic with 0.06 ug/mL (¼ MIC) of Compound (1b): +0.06 ug/mL Compound (1b); for MIC, antibiotic alone: single agent; for MIC: Streptococcus pneumoniae, 1629, S. pneumoniae 1629, no second agent, read-out: MIC, single agent.

In assay [2] the test system is S. aureus WCUH29. As to the kind of experiment: MIC against S. aureus WCUH29, alone and with subinhibitory concentrations of a second agent. Type of assay: cell-based, Staphylococcus aureus. The note with it: for MIC, antibiotic with 0.5 ug/mL (¼ MIC) of Compound (1a) / fold decrease MIC, antibiotic with 0.5 ug/mL (¼ MIC) of Compound (1a) / MIC, antibiotic with 1 ug/mL (½ MIC) of Compound (1a) / fold decrease MIC, antibiotic with 1 ug/mL (½ MIC) of Compound (1a) / MIC, antibiotic alone: S. aureus WCUH29; for MIC, antibiotic with 0.5 ug/mL (¼ MIC) of Compound (1a) / fold decrease MIC, antibiotic with 0.5 ug/mL (¼ MIC) of Compound (1a): +0.5 ug/mL Compound (1a); for MIC, antibiotic with 1 ug/mL (½ MIC) of Compound (1a) / fold decrease MIC, antibiotic with 1 ug/mL (½ MIC) of Compound (1a): +1 ug/mL Compound (1a); for MIC, antibiotic alone: single agent; for decrease of MIC by subinhibitory concentrations of Compound (1a): S. aureus, Example 3; for MIC: Staphylococcus aureus, WCUH29, S. aureus WCUH29, no second agent, read-out: MIC, single agent.

Assay [3] deals with H. influenzae Q1. As to the kind of experiment: MIC against H. influenzae Q1, alone and with subinhibitory concentrations of a second agent.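 As to all read-outs here: combinations paired PDF inhibitors with macrolides, one class added below its own MIC to test whether the MIC of the other class dropped.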 Format: cell-based, Haemophilus influenzae. Conditions: for MIC, antibiotic alone: single agent (Example 7).
The mark [4] stands for this setting: H. influenzae Q1, +0.5 ug/mL Compound (1a).
Setting [5] is: H. influenzae Q1, +1 ug/mL Compound (1a).

By MIC is commonly meant the least concentration at which growth counts as inhibited. With `O=C(O)c1cn(C2CC2)c2cc(N3CCNCC3)c(F)cc2c1=O` [Ciprofloxacin, ciprofloxacin], in assay [1], the “decrease of MIC by subinhibitory concentrations of Compound (1b)” value is reported as “no effect”; the “MIC, antibiotic with 0.06 ug/mL (¼ MIC) of Compound (1b)” value came out at 0.5 µg/mL; the “fold decrease MIC, antibiotic with 0.06 ug/mL (¼ MIC) of Compound (1b)” value is “[0] fold”; the “MIC, antibiotic with […] (½ MIC) of Compound (1b)” value is 0.5 µg/mL. In addition, in assay [1], the “fold decrease MIC, antibiotic with […] (½ MIC) of Compound (1b)” value was “[0] fold”; the “MIC, antibiotic alone” value worked out at 0.5 µg/mL (≈ 1.51 µM); the minimum inhibitory concentration (MIC) came to 0.5 µg/mL (≈ 1.51 µM). In assay [2], the “MIC, antibiotic with 0.5 ug/mL (¼ MIC) of Compound (1a)” value turned out to be 0.25 µg/mL; the “fold decrease MIC, antibiotic with 0.5 ug/mL (¼ MIC) of Compound (1a)” value (“fold decrease MIC … (¼ MIC) of Compound (1a)” below) was “[0] fold”; the “MIC, antibiotic with 1 ug/mL (½ MIC) of Compound (1a)” value is 0.25 µg/mL; the “fold decrease MIC, antibiotic with 1 ug/mL (½ MIC) of Compound (1a)” value (from here on “fold decrease MIC … (½ MIC) of Compound (1a)”) is “[0] fold”. Also, in assay [2], the “MIC, antibiotic alone” value was determined as 0.25 µg/mL (≈ 0.754 µM); the “decrease of MIC by subinhibitory concentrations of Compound (1a)” value was “no effect”; the MIC came to 0.25 µg/mL (≈ 0.754 µM). Besides, in assay [3] (setting [4]), the “MIC, antibiotic with 0.5 ug/mL (¼ MIC) of Compound (1a)” value was determined as 0.008 µg/mL and the “fold decrease MIC … (¼ MIC) of Compound (1a)” value is “[0] fold”. Moreover, in assay [3] (setting [5]), the “MIC, antibiotic with 1 ug/mL (½ MIC) of Compound (1a)” value is 0.008 µg/mL and the “fold decrease MIC … (½ MIC) of Compound (1a)” value was “[0] fold”. The “MIC, antibiotic alone” value in assay [3] (H. influenzae Q1) came out at 0.008 µg/mL (≈ 0.0241 µM). Besides, the “decrease of MIC by subinhibitory concentrations of Compound (1a)” value in assay [3] (H. influenzae, text summary of Example 7) is “no effect”.

Take `C/C(=C\C(=O)OCCCCCCCCC(=O)O)C[C@@H]1OC[C@H](C[C@@H]2O[C@H]2[C@@H](C)[C@H](C)O)[C@@H](O)[C@H]1O` [Mupirocin, mupirocin]: in assay [1], the “decrease of MIC by subinhibitory concentrations of Compound (1b)” value is on record as “no effect”; the “MIC, antibiotic with 0.06 ug/mL (¼ MIC) of Compound (1b)” value stood at 0.5 µg/mL; the “fold decrease MIC, antibiotic with 0.06 ug/mL (¼ MIC) of Compound (1b)” value was “[0] fold”; the “MIC, antibiotic with […] (½ MIC) of Compound (1b)” value was determined as 0.5 µg/mL. Moreover, in assay [1], the “fold decrease MIC, antibiotic with […] (½ MIC) of Compound (1b)” value was “[0] fold”; the “MIC, antibiotic alone” value came to 0.5 µg/mL (≈ 0.999 µM); the MIC was found to be 0.5 µg/mL (≈ 0.999 µM). In assay [2], the “MIC, antibiotic with 0.5 ug/mL (¼ MIC) of Compound (1a)” value was found to be 0.125 µg/mL; the “fold decrease MIC … (¼ MIC) of Compound (1a)” value was “[0] fold”; the “MIC, antibiotic with 1 ug/mL (½ MIC) of Compound (1a)” value came out at 0.125 µg/mL; the “fold decrease MIC … (½ MIC) of Compound (1a)” value was “[0] fold”. Also, in assay [2], the “MIC, antibiotic alone” value was 0.125 µg/mL (≈ 0.25 µM) and the “decrease of MIC by subinhibitory concentrations of Compound (1a)” value is on record as “no effect”.

As for `CC[C@H]1OC(=O)[C@H](C)[C@@H](O[C@H]2C[C@@](C)(OC)[C@@H](O)[C@H](C)O2)[C@H](C)[C@@H](O[C@@H]2O[C@H](C)C[C@H](N(C)C)[C@H]2O)[C@](C)(O)C[C@@H](C)C(=O)[C@H](C)[C@@H](O)[C@]1(C)O` [Erythromycin, erythromycin], in assay [1], the “decrease of MIC by subinhibitory concentrations of Compound (1b)” value was 4-16 fold; the “MIC, antibiotic with 0.06 ug/mL (¼ MIC) of Compound (1b)” value amounted to 0.008 µg/mL; the “MIC, antibiotic alone” value is 0.03 µg/mL (≈ 0.0409 µM); the MIC is 0.03 µg/mL (≈ 0.0409 µM). In assay [2], the “MIC, antibiotic with 1 ug/mL (½ MIC) of Compound (1a)” value was found to be 0.016 µg/mL; the “MIC, antibiotic alone” value came out at 0.25 µg/mL (≈ 0.341 µM); the “decrease of MIC by subinhibitory concentrations of Compound (1a)” value is on record as 2-16 fold; the MIC is 0.25 µg/mL (≈ 0.341 µM). Also, the “MIC, antibiotic with 0.5 ug/mL (¼ MIC) of Compound (1a)” value in assay [3] (setting [4]) worked out at 2 µg/mL. Moreover, in assay [3] (setting [5]), the “MIC, antibiotic with 1 ug/mL (½ MIC) of Compound (1a)” value is 1 µg/mL. The “MIC, antibiotic alone” value in assay [3] (H. influenzae Q1) stood at 8 µg/mL (≈ 10.9 µM).
